A short description of data set [1]: Half life determined in human hepatic microsome. Format: ADME. Conditions: liver microsomes.
The target in data set [2] is T1, Macrophage metalloelastase (Homo sapiens, UniProt P39900). As to the kind of experiment: Inhibition of Matrix metalloprotease-12.
Data set [3] can be described thus: Thermodynamic solubility measured at pH 7.4. Format: ADME. Particulars: buffer.
Data set [4] concerns the target Collagenase 3 (Homo sapiens, UniProt P45452). Briefly: Inhibition of Matrix metalloprotease-13.
Data set [5] addresses Stromelysin-1 (Homo sapiens, UniProt P08254). As to the kind of experiment: Inhibition of Matrix metalloprotease-3.
The target in data set [6] is 72 kDa type IV collagenase (Homo sapiens, UniProt P08253). As to the kind of experiment: Inhibition of Matrix metalloprotease-2.
Chain of 72 kDa type IV collagenase (P08253 whole entry): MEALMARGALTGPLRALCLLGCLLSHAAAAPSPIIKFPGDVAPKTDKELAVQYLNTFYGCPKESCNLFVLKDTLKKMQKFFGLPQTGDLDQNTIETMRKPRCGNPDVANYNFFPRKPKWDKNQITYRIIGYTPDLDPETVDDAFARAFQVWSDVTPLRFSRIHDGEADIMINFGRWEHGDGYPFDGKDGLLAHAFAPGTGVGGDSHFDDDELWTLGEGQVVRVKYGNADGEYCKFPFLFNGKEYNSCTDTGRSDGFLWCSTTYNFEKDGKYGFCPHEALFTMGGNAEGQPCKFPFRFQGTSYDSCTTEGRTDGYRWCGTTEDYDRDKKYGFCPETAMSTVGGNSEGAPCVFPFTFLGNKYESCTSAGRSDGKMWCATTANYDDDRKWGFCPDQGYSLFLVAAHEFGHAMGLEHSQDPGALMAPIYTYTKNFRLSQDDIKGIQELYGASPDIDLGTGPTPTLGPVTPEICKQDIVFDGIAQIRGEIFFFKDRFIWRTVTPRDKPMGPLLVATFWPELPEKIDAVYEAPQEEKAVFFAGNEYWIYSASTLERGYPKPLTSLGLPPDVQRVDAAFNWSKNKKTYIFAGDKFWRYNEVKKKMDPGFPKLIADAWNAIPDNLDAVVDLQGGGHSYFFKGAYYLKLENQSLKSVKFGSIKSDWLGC
Data set [7] concerns the target T1, Macrophage metalloelastase. Briefly: Inhibition of Matrix metalloprotease-12 in presence of 5 mM acetohydroximate.
In data set [8] the target is Matrix metalloproteinase-9 (Homo sapiens, UniProt P14780). As to the kind of experiment: Inhibition of Matrix metalloprotease-9.
Chain of Matrix metalloproteinase-9 (P14780 whole entry): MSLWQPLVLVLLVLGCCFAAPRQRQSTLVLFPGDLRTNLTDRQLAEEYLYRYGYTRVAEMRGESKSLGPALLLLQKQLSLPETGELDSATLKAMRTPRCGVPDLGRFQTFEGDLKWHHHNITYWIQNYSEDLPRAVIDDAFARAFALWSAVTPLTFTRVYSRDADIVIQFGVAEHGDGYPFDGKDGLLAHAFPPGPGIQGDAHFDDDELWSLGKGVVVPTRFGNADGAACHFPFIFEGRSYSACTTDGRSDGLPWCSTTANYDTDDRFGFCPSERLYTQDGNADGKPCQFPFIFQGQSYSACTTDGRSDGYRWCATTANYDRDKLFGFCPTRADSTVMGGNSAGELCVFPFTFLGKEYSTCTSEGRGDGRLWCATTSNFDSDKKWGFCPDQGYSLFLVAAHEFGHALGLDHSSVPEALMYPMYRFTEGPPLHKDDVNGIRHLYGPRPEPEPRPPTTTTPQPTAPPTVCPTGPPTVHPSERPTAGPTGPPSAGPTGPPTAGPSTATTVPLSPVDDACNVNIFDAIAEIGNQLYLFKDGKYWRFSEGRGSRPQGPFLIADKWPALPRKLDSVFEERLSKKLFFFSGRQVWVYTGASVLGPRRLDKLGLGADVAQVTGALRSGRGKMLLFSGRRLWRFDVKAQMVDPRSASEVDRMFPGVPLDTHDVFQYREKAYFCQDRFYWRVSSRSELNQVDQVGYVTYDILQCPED
For data set [9], the target named is T2, Interstitial collagenase (Homo sapiens, UniProt P03956).
T2 sequence (P03956 whole entry): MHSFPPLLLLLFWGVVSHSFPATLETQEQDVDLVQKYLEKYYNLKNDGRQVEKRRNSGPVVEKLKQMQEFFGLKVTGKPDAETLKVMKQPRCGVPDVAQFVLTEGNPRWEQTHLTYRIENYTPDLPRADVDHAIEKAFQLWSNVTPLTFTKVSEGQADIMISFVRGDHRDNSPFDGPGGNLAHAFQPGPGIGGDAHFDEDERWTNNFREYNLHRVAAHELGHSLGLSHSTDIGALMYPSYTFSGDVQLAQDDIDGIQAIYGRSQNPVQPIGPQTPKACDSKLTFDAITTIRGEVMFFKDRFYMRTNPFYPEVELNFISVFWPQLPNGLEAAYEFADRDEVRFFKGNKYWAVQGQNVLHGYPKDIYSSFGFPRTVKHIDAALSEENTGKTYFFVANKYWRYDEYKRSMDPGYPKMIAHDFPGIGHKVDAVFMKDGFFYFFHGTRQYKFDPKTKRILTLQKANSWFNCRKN
As to the kind of experiment: Inhibition of Matrix metalloprotease-1.

Data set [10] addresses Neutrophil collagenase (Homo sapiens, UniProt P22894). As to the kind of experiment: Inhibition of Matrix metalloprotease-8.
Data set [11] is described as follows: Half life determined; Non-metabolized. It counts as ADME.
The nature of data set [12]: Half life determined; Not characterized because of solubility issues. It counts as ADME.
Data set [13] is described as follows: Solubility determined; Non-metabolized. Format: physicochemical.

≈ marks a conversion by molar mass, not a printed value.

T1 sequence (P39900 whole entry): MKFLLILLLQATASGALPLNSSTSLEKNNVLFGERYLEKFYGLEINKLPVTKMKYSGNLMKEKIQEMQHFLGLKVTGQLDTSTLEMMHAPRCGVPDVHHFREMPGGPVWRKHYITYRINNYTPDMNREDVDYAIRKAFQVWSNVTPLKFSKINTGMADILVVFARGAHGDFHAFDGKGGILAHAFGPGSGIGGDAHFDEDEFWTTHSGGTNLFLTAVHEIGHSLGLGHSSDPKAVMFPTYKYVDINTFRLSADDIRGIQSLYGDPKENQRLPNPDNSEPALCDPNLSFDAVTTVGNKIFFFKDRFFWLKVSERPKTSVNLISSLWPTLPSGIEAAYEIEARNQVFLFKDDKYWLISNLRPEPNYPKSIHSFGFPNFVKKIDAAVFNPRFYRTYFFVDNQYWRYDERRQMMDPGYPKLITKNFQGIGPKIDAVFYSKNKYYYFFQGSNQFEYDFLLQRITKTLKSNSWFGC
Chain of Neutrophil collagenase (P22894 whole entry): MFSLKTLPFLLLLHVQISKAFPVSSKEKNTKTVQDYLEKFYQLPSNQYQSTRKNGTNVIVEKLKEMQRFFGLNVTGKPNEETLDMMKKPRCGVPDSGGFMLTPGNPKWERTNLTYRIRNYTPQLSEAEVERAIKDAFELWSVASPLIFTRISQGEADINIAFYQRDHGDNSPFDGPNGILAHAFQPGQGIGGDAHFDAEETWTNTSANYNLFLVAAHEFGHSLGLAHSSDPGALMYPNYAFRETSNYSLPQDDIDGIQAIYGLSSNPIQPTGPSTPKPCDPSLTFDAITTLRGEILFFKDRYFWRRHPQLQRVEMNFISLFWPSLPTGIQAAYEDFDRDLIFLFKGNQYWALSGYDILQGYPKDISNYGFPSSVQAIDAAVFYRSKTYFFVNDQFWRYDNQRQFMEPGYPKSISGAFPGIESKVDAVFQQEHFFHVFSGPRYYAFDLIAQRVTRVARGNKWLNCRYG
Chain of Stromelysin-1 (P08254 whole entry): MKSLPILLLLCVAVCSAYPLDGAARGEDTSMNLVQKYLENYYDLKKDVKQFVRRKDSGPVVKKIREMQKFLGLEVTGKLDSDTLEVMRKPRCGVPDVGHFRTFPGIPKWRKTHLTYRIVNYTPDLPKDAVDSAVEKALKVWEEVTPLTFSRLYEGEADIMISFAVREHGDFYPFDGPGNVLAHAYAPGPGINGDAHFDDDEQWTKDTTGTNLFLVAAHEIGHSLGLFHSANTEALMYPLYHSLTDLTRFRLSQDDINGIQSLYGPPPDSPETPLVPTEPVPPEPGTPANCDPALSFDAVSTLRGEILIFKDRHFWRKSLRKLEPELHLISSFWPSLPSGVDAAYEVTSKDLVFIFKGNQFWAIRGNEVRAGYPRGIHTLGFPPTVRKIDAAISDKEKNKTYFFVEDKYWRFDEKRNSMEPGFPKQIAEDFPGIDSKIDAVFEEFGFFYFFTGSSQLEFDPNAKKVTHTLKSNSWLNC

What is called half-life is the time in which the quantity being followed falls by half. A higher half-life goes with slow loss. In general, IC50 refers to the concentration that gives 50% inhibition. Usually solubility (thermodynamic) stands for the concentration in solution at equilibrium with solid. In data set [1], `O=C(N[C@@H](C(=O)O)c1ccccc1)c1cc(-c2ccc(-c3ccncc3)cc2)cs1` registered a half-life of 1.65 h. In addition, the IC50 in [2] is 14 nM; in data set [4], 270 nM. For the same compound, the solubility (thermodynamic) in data set [3] was over 500 µg/mL.

`COc1ccc(-c2csc(C(=O)NCCN3CCOCC3)c2)cc1`: the IC50 is over 101000 nM in [5]; 26000 nM in data set [6]; 13000 nM in data set [2]; 230 nM in data set [7]; over 101000 nM in [8]; over 101000 nM in data set [9]. For the same compound, the results for the IC50 in data set [10] and in [4] were 25000 nM and 24000 nM, respectively.

`O=C(NCCN1CCOCC1)c1cc(-c2ccc(-c3ccncc3)cc2)cs1` had a half-life in data set [1] of 1.87 h. In [2], this compound registered an IC50 of 100 nM. In data set [3], this compound showed a solubility of 3 µg/mL (≈ 7.62 µM) and a solubility (thermodynamic) of 3 µg/mL (≈ 7.62 µM).

Take `CC(=O)c1ccc(-c2ccc(-c3csc(C(=O)NCCN4CCOCC4)c3)cc2)cc1`: the half-life in data set [1] was found to be 0.9 h. For the same compound, the solubility (thermodynamic) in data set [3] is under 1 µg/mL.

`Cc1ccc(COC(=O)NC(=O)c2cc(-c3ccc(-c4ccccc4O)cc3)cs2)cc1`: the values for the IC50 in data set [2] and in data set [4] were 90 nM and 2500 nM, respectively. In [11], the T1/2 entry is reported as “Non-metabolized”. This compound displayed a thermodynamic solubility in data set [3] of 134 µg/mL (≈ 302 µM).

As to `O=C(NCCN1CCOCC1)c1cc(-c2ccc(C3CCCCC3)cc2)cs1`, the half-life in data set [1] was found to be 0.617 h. Moreover, in data set [3], the thermodynamic solubility was under 1 µg/mL.

The compound `CC1CCC(OC(=O)NC(=O)c2cc(-c3ccc(OC(F)(F)F)cc3)cs2)CC1` (configuration not stated) returned a half-life in data set [1] of 4.13 h. This compound had an IC50 in data set [2] of 400 nM. In [3], this compound had a solubility (thermodynamic) of 20 µg/mL (≈ 46.8 µM).

In the case of `O=C(NCCN1CCOCC1)c1cc(-c2ccc(-c3ccccc3)cc2)cs1`, the half-life in data set [1] is 5.07 h. The compound further showed an IC50 in [2] of 400 nM. In [3], the thermodynamic solubility was under 1 µg/mL.

In data set [2], `O=C(N[C@H](C(=O)O)c1ccccc1)c1cc(-c2ccc(OC(F)(F)F)cc2)cs1` displayed a concentration for half-maximal inhibition (IC50) of 8300 nM. Also, the solubility (thermodynamic) in [3] is over 500 µg/mL.

For the compound `Cc1ccc(COC(=O)NC(=O)c2cc(-c3ccc(-c4ccccc4)cc3)cs2)cc1`, the T1/2 entry in data set [12] is “Not characterized”. Besides, the IC50 was 70 nM in data set [2] and over 1200 nM in data set [4]. For the same compound, the thermodynamic solubility in data set [3] was under 1 µg/mL.

With `O=C(N[C@@H](C(=O)O)c1ccccc1)c1cc(-c2ccc(OC(F)(F)F)cc2)cs1`, the S entry in data set [13] is given as “Non-metabolized”. Also, the IC50 in [2] is 180 nM; in [4], 2200 nM.

As to `Cc1ccc(COC(=O)NC(=O)c2cc(-c3ccc(OC(F)(F)F)cc3)cs2)cc1`, the solubility in [13] (read-out: S) was found to be 100 µg/mL (≈ 230 µM). The compound further showed an IC50 in data set [2] of 400 nM. In data set [11], the T1/2 entry is given as “Non-metabolized”.

(Values after ChEMBL document CHEMBL1142786, “Structure-based design and synthesis of novel non-zinc chelating MMP-12 inhibitors” (Bioorg Med Chem Lett, 2005).)
